From patent publication US20230331685A1, “HERBICIDAL COMPOUNDS AND METHODS OF USE THEREOF” (AG Plenus Ltd, priority 2020, published 2023) come the findings set out here.

Common to all, as to assay type: in vivo
The subject of one test is Phalaris minor. The test can be described thus: LTP post-emergence greenhouse test. The following applies: Dosage 2000 g/ha.
For another test, the system named is Lolium multiflorum. Description: LTP post-emergence greenhouse test. The following applies: Dosage 2000 g/ha.
The next test relates to Digitaria sanguinalis. The test can be described thus: LTP post-emergence greenhouse test. The following applies: Dosage 2000 g/ha.
The subject of the next test is Alopecurus myosuroides. The test can be described thus: LTP post-emergence greenhouse test. The following applies: Dosage 2000 g/ha.
Another test has as its system Amaranthus tuberculatus. Description: LTP post-emergence greenhouse test. The following applies: Dosage 2000 g/ha. The procedure:
A basic panel of eight weed species (Table 3) sowed in 4×4×7 cm plastic pots containing a garden mix (klasmann). Each specie was sowed in a separate pot. In each pot, 10-15 seeds were sowed according to the specie viability. Timing of application determined at a 1-2 true leaf stage. The plants grew for 30 days in a controlled greenhouse (26±2° C. day, 20±2° C. night). Hood irrigation (tap water+Shefer 5:3:8 8 mM) was given at a 50% water content by weight. Two days before application, the tested plants thinned down to three plants per pot. Compounds were soluble in water (DDW), and commercial herbicide control was soluble in formulation B (Table 4). Before application, 1% (v/v) crop oil and 0.02% (v/v) surfactant (Tergitol™ 15-S-7) were added to the solution. […] Plants were evaluated at 3 time points (4, 8, 12 days after application (DAA)). At each time point, visual phenotyping was recorded using a scale of 0-6 (0: no visible effect, 6: maximum effect). […]
Post-emergence advanced wide panel experiment included 24 weed species (Table 5). […] Visual phenotyping was recorded at 4, 11, 17 and 20 DAA using a scale of 0-6 (0: no visible effect, 6: maximum effect). […] Statistical analysis for visual phenotyping determined by a median value of ≥3.5 and Fisher test (pval≤0.05). Statistical analysis for dry weight determined by % inhibition ≥50 and T test (pval≤0.05), as well as Wilcox test (pval≤0.05).

The subject of another test is Conyza canadensis. The test can be described thus: LTP post-emergence greenhouse test. The following applies: Dosage 2000 g/ha.
In a further test the test system is Stellaria media. The test can be described thus: LTP post-emergence greenhouse test. The following applies: Dosage 2000 g/ha.
The test system of the next test is Matricaria chamomilla. Description: LTP post-emergence greenhouse test. The following applies: Dosage 2000 g/ha.
The test system of the next test is Abutilon theophrasti. The test can be described thus: LTP post-emergence greenhouse test. The following applies: Dosage 2000 g/ha.
The test system of the next test is Ambrosia artemisiifolia. Description: LTP post-emergence greenhouse test. The following applies: Dosage 2000 g/ha.
In test [1] the test system is Arabidopsis thaliana. Description: LTP post-emergence greenhouse test. The following applies: Dosage 2000 g/ha.
For test [2], the system named is Arabidopsis thaliana. Description: HTPS post-emergence application on miniature dicot model plant. As for the experimental part: The plates were placed in a controlled greenhouse in a random order inside a bath which allows flooding irrigation with tap water supplemented with a fertilizer. Applied compounds were dissolved into a final solution of 50% acetone, 49.9% DDW, 0.1% tween-20. A 96 well plate was used as a stock plate for preparing application solutions for 8 repeats. Each row contained different concentrations per chemical. Maximal concentration for application was 1.5 Kg/Ha and dilution factor is 2.5. Chemical application was performed one day after thinning out in a chemical hood. […] applied on first two true leaves in each well using 12 channel pipettes. Data collection: RGB (red, green, blue) data for green area per well was documented using camera. Data is collected at a few time points during the experiment: one day after thinning and before chemical application, two-, six- or nine-days post application. During the last two documentations, visual phenotyping was performed. Data analysis: Given RGB results and visual phenotype scores, a student t-test conducted to compare between treatment and control performance for continuous data (RGB) and Fisher exact test to analyze the non-continuous data (phenotypic scores). Dose-Response curves are generated for each treatment to infer ED50 and max. inhibition parameters, using treatment's log concentration range as the […] variable and normalized green area. Plate imaging performed at 11 and 18 DAA. RGB data for green area per well was documented and used to extract % inhibition. Dose-Response curves were built for each treatment to infer EC50, EC75 and EC90 parameters, using treatment's log concentration range as the independent variable and normalized green area as the dependent variable. Treatments were compared to controls performance given RGB results and using student's t-test (p-val≤0.05). Compounds 104-154 were applied in either or both pre- and post-emergence mode to either or both monocot and dicot model plants, following the methods described above. The compounds were applied as a gradient of concentrations as listed above, from which the ED50 was calculated.

Test [3] concerns monocot and eudicot weeds species. Description: In-planta LTP weed panel, overall assessment. The following applies: monocot and eudicot weeds species; both post-emergence and pre-emergence; most of the species tested.

Molecules are shown by their SMILES.

Consider `C[C@@H](O)[C@@H](N)CCCCC(=O)O` [Compound 104, (6S,7R)-6-amino-7-hydroxyoctanoic acid], for which, in the test with Phalaris minor, the “Herbicidal activity (In-planta), LTP-Post emergence, Phalaris minor” value is recorded as 20-30. In the test with Lolium multiflorum, the “Herbicidal activity (In-planta), LTP-Post emergence, Lolium multiflorum” value was 80-90. The “Herbicidal activity (In-planta), LTP-Post emergence, Digitaria sanguinalis” value with Digitaria sanguinalis came to 95. Further, the “Herbicidal activity (In-planta), LTP-Post emergence, Alopecurus myosuroides” value with Alopecurus myosuroides is reported as 95. In addition, the “Herbicidal activity (In-planta), LTP-Post emergence, Amaranthus tuberculatus” value with Amaranthus tuberculatus was 80. Besides, in the test on Conyza canadensis, the “Herbicidal activity (In-planta), LTP-Post emergence, Conyza canadensis” value is on record as 95. Moreover, the “Herbicidal activity (In-planta), LTP-Post emergence, Stellaria media” value in the test with Stellaria media is 95. For the same compound, the “Herbicidal activity (In-planta), LTP-Post emergence, Matricaria chamomilla” value in the test with Matricaria chamomilla is recorded as 70-80. The “Herbicidal activity (In-planta), LTP-Post emergence, Abutilon theophrasti” value with Abutilon theophrasti worked out at 80. Also, in the test with Ambrosia artemisiifolia, the “Herbicidal activity (In-planta), LTP-Post emergence, Ambrosia artemisiifolia” value is reported as 70-80. The “Herbicidal activity (In-planta), LTP-Post emergence, Arabidopsis thaliana” value in the test with Arabidopsis thaliana [1] is 60. Besides, the Emax with Arabidopsis thaliana [2] (Arabidopsis thaliana, post-emergence, green area (RGB), read-out: Max Inhibition (%)) worked out at 100%. In addition, the “ED50 (g/ha)” value with Arabidopsis thaliana [2] (dose-response of normalized green area) was found to be 0.2 g/ha. Further, the “control of weeds (in words)” value in [3] is on record as “excellent control”.
